Source: patent US6608061B2, “Bisaryl compound and medicament for cancer treatment comprising the same” (Kyoma Hakko Kogyo Co., Ltd., priority 1997, dated 2003)

Columns and labels:
HeLa S3 cells = experiment: Test for growth inhibition of HeLa S3 cells; assay type: cell-based; settings: Homo sapiens, HeLa S3, 72 h, HeLa S3 cells, 72 hours with test compound, Cell Proliferation Kit II; read-out: Cell growth inhibition (IC50)
Experimental: Test for Growth Inhibition of Hela S3 Cells
HeLa S3 cells prepared at 1×10^4 cells/ml in MEM culture medium containing 10% fetal bovine serum and 2 mM glutamine were added to each well of a 96-well microtiter plate (0.1 ml for each well). The cells were cultured at 37° C. in a CO2 incubator for 24 hours, and then 0.05 ml of test compound appropriately diluted with the above medium was added to each well, and then the mixture was cultured at 37° C. in a CO2 incubator for 72 hours. After the culture supernatant was removed, each well was washed with 0.1 ml of PBS buffer twice, and 0.1 ml of the aforementioned medium was added to each well again.
Cell Proliferation Kit II (Boehringer Mennheim) was used for measurement of cell number in each well. After a coloring reaction reagent was added, the plate was warmed to 37° C. in a CO2 incubator for 3 hours. Then, absorbances at 490 nm and 655 nm were measured by a microplate reader, and a value (difference of absorbance) was calculated for each well by subtracting the absorbance at […] from the absorbance at 490 nm. By comparing the differences of absorbance for cells without treatment and cells treated with a test compound at a known concentration, a concentration of test compound which inhibited the cell growth by 50% was calculated, and the value obtained was determined as IC50. The values of RNR inhibitory activity obtained in Example 8, and the values of cell growth inhibitory activity obtained in Example 9 are shown in the following tables (the compound numbers used in the tables correspond to the compound numbers shown in the aforementioned tables).

[1] = molecular target: T1, human RNR (purified R1 and R2 subunits) (Homo sapiens, UniProt P23921+P31350); experiment: In vitro measurement of human RNR inhibitory activity (conversion of CDP to dCDP, HPLC); assay type: biochemical; settings: 100 μM CDP, 37° C., 30 minutes, read-out: RNR Inhibition (IC50)
T1 construct: made in house; host or cells: Escherichia coli BL21(λDE3)pLysS, plasmids pETR1 and pETR2 (pET3a backbone)
T1 sequence (P23921 1-792): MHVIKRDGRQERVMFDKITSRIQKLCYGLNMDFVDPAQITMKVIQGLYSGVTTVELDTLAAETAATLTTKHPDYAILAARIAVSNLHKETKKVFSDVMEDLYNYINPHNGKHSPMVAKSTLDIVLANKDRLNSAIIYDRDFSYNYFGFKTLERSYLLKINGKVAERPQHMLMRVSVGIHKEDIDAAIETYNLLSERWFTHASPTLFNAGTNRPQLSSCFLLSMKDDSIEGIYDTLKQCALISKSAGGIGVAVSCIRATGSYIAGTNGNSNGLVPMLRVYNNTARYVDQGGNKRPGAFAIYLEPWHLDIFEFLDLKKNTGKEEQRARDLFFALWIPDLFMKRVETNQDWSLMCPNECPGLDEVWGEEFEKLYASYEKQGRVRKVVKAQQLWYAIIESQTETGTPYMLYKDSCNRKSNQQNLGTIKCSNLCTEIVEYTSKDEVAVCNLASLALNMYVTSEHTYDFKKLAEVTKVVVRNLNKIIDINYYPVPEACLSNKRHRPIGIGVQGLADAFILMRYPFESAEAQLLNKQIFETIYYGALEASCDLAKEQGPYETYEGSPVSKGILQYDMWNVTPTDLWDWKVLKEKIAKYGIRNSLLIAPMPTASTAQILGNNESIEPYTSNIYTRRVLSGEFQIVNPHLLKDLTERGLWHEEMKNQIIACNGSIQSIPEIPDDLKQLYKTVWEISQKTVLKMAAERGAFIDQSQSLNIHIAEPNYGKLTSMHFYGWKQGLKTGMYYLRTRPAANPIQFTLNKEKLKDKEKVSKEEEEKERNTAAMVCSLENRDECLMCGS
T1 sequence (P31350 1-389): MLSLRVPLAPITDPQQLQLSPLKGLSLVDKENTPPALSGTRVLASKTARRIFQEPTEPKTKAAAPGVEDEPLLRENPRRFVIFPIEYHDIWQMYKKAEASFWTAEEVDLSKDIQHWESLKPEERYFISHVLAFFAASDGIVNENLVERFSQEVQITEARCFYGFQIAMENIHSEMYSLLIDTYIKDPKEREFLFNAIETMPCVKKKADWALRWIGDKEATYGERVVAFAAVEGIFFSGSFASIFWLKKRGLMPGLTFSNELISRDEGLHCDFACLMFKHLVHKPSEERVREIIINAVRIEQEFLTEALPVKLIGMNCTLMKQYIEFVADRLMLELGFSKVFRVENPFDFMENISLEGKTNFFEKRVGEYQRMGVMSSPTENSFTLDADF

IC50 (HeLa S3 cells)	IC50 [1]	SMILES
4.06 µM	3.24 µM	COCCOCCOCCN(CCSc1ccc(O)cc1)CCSc1ccc(O)cc1 [Compound 197]
7.73 µM	2.69 µM	OC[C@H]1OC(N(CCSc2ccc(O)cc2)CCSc2ccc(O)cc2)[C@@H](O)[C@@H](O)[C@@H]1O (stereo partly drawn) [Compound 214]
180 µM	2.06 µM	CC[N+](CC)(CC)CCCN(CCSc1ccc(O)cc1)CCSc1ccc(O)cc1 [Compound 213]
24.9 µM	4.2 µM	O=C(CCN(CCSc1ccc(O)cc1)CCSc1ccc(O)cc1)N1CCOCC1 [Compound 107]
18 µM	5.14 µM	CC(CSc1ccc(O)cc1)Sc1ccc(O)cc1 (stereo not drawn) [Compound 152]
9.07 µM	3.99 µM	Oc1ccc(SCCN(CCSc2ccc(O)cc2)Cc2ccccc2F)cc1 [Compound 105]
9.14 µM	0.69 µM	Oc1ccc(SCCCCCSc2ccc(O)cc2)cc1 [Compound 136]
5.93 µM	3.46 µM	O=C(CN(CCSc1ccc(O)cc1)CCSc1ccc(O)cc1)N(CCO)CCO [Compound 208]
6.5 µM	4.38 µM	O=C(CCSc1ccc(O)cc1)N(CCSc1ccc(O)cc1)CCSc1ccc(O)cc1 [Compound 52]
38.9 µM	2.36 µM	CCN(CC)CCN(CCSc1ccc(O)cc1)CCSc1ccc(O)cc1 [Compound 109]
12.9 µM	5.05 µM	Oc1ccc(SCCN(CCSc2ccc(O)cc2)Cc2ccc3ccccc3n2)cc1 [Compound 101]
2.72 µM	1.69 µM	O=C(c1ccncc1)N(CCSc1ccc(O)cc1)CCSc1ccc(O)cc1 [Compound 117]
30 µM	8.01 µM	Oc1ccc(SCCOCCOCCOCCSc2ccc(O)cc2)cc1 [Compound 171]
16 µM	5.45 µM	N=C(N)N(CCSc1ccc(O)cc1)CCSc1ccc(O)cc1 [Compound 49]
6.89 µM	0.69 µM	Oc1ccc(SCC=CCSc2ccc(O)cc2)cc1 [Compound 159]
7.78 µM	6.87 µM	CS(=O)(=O)N(CCSc1ccc(O)cc1)CCSc1ccc(O)cc1 [Compound 118]
4.55 µM	0.91 µM	O=C(N1CCCCC1)N(CCSc1ccc(O)cc1)CCSc1ccc(O)cc1 [Compound 125]
3.56 µM	0.88 µM	OCCCN(CCSc1ccc(O)cc1)CCSc1ccc(O)cc1 [Compound 95]
1.71 µM	0.87 µM	O=C(CN(CCSc1ccc(O)cc1)CCSc1ccc(O)cc1)NCCO [Compound 207]
5.64 µM	3.64 µM	Oc1ccc(SCCNCCSc2ccc(O)cc2)cc1 [Compound 45]
2.57 µM	1.01 µM	CSCCN(CCSc1ccc(O)cc1)CCSc1ccc(O)cc1 [Compound 87]
128 µM	6.59 µM	Oc1ccc(SSc2ccc(O)cc2)cc1 [Compound 131]
3.38 µM	1.5 µM	N#CCCN(CCC#N)C(=O)CN(CCSc1ccc(O)cc1)CCSc1ccc(O)cc1 [Compound 204]
14.4 µM	0.73 µM	O=C(N(CCSc1ccc(O)cc1)CCSc1ccc(O)cc1)N1CCCc2ccccc21 [Compound 57]
11.4 µM	1.85 µM	Oc1ccc(SCCN(CCSc2ccc(O)cc2)CCN2CCCCC2)cc1 [Compound 111]
3.78 µM	3.14 µM	O=C1CCC(=O)N1CCN(CCSc1ccc(O)cc1)CCSc1ccc(O)cc1 [Compound 86]
45.6 µM	3.5 µM	Oc1ccc(SCSc2ccc(O)cc2)cc1 [Compound 132]

IC50 (HeLa S3 cells)	IC50 [1]	SMILES
14.5 µM	2.27 µM	Oc1ccc(SCCSc2ccc(O)cc2)cc1 [Compound 133]
7.32 µM	1.19 µM	O=C(CN(CCSc1ccc(O)cc1)CCSc1ccc(O)cc1)NC(CO)CO [Compound 205]
2.74 µM	3.44 µM	O=C(c1ccccc1)N(CCSc1ccc(O)cc1)CCSc1ccc(O)cc1 [Compound 114]
5.14 µM	3.99 µM	OCCOCCN(CCSc1ccc(O)cc1)CCSc1ccc(O)cc1 [Compound 199]
2.46 µM	0.3 µM	Oc1ccc(SCCC(O)CSc2ccc(O)cc2)cc1 (stereo not drawn) [Compound 184]
11.5 µM	3.63 µM	OC[C@@H]1OC(N(CCSc2ccc(O)cc2)CCSc2ccc(O)cc2)[C@@H](O)[C@H](O)[C@H]1O (stereo partly drawn) [Compound 216]
1.43 µM	0.74 µM	CCN(CC)C(=O)CCN(CCSc1ccc(O)cc1)CCSc1ccc(O)cc1 [Compound 80]
3.56 µM	1.66 µM	Oc1ccc(SCCN(CCSc2ccc(O)cc2)CC2CC2)cc1 [Compound 75]
20.1 µM	0.95 µM	Oc1ccc(SCC#CCSc2ccc(O)cc2)cc1 [Compound 160]
15 µM	3.36 µM	Oc1ccc(SCCN(CCSc2ccc(O)cc2)Cc2ccccc2)cc1 [Compound 98]
1.74 µM	2.11 µM	COCCN(CCSc1ccc(O)cc1)CCSc1ccc(O)cc1 [Compound 104]
3.7 µM	1.7 µM	Oc1ccc(SCCOCOCCSc2ccc(O)cc2)cc1 [Compound 162]
42.6 µM	1.87 µM	N=C(N)NCCN(CCSc1ccc(O)cc1)CCSc1ccc(O)cc1 [Compound 202]
1.3 µM	1.42 µM	NC(=O)NCCN(CCSc1ccc(O)cc1)CCSc1ccc(O)cc1 [Compound 82]
5.17 µM	2.95 µM	CC(=O)NCCN(CCSc1ccc(O)cc1)CCSc1ccc(O)cc1 [Compound 83]
3.8 µM	4.77 µM	CCC(=O)N(CCSc1ccc(O)cc1)CCSc1ccc(O)cc1 [Compound 113]
6.77 µM	4.64 µM	Oc1ccc(SCCN(CCSc2ccc(O)cc2)Cc2ccc(F)cc2)cc1 [Compound 106]
2 µM	0.82 µM	C=CCN(CCSc1ccc(O)cc1)CCSc1ccc(O)cc1 [Compound 74]
3.31 µM	1.13 µM	O=C(CN(CCSc1ccc(O)cc1)CCSc1ccc(O)cc1)N1CCC[C@H]1CO [Compound 206]
4.51 µM	2.85 µM	O=C(NCCCSc1ccc(O)cc1)C1(C(=O)NCCCSc2ccc(O)cc2)CCCC1 [Compound 192]
5.45 µM	2.27 µM	Oc1ccc(SCC(O)CSc2ccc(O)cc2)cc1 [Compound 156]
10.4 µM	0.42 µM	CC1(C)OC(CSc2ccc(O)cc2)C(CSc2ccc(O)cc2)O1 (stereo not drawn) [Compound 183]
2.82 µM	5.91 µM	O=C(CN(CCSc1ccc(O)cc1)CCSc1ccc(O)cc1)Nc1nccs1 [Compound 210]
2.14 µM	0.89 µM	Oc1ccc(SCCN(CCSc2ccc(O)cc2)Cc2ccccc2O)cc1 [Compound 92]
3.94 µM	1.23 µM	CCN(CCSc1ccc(O)cc1)CCSc1ccc(O)cc1 [Compound 71]
11.7 µM	0.84 µM	Oc1ccc(SCCN(CCSc2ccc(O)cc2)CCC2OCCCO2)cc1 [Compound 194]
3.22 µM	1.79 µM	Oc1ccc(SCCN(CCSc2ccc(O)cc2)CC2OCCO2)cc1 [Compound 88]
